Experimental findings from patent publication US6610649B2, “Insulin C-peptides” (Creative Peptides Sweden AB, priority 1996, dated 2003) are described below.

Assay [1] relates to Na^+K^+ATPase. The assay is described as follows: Stimulation of Na+K+ATPase activity of rat renal tubule cells (microdissected proximal convoluted tubules, 32P-ATP with or without ouabain). It is filed as cell-based. Particulars: for activity of peptides containing D-amino acid isomers (in words): Na^+K^+ATPase of rat renal tubule segments; for relative stimulatory activity on Na^+K^+ATPase activity: 5-10^−7 M peptide, rat C-peptide 1 at the same concentration set at 100%, tubules incubated 30 minutes at room temperature; for stimulation of Na^+K^+ATPase activity compared with whole C-peptide (in words): renal tubule cells in vitro. The procedure:
Fragments of the invention have been proven to stimulate Na^+K^+ATPase activity to varying extent. […] As much as 90% of the effect is achieved within 3 minutes. […] Combinations of Peptides A-D with Peptides E or F result in a stimulation of the enzyme activity that is greater than that for either peptide alone. For detailed examples of the stimulatory effects of the above peptides, see Example 1, below.
In the case of peptide A certain studies on Na^+K^+ATPase activity, studying the ability of the peptide fragments to stimulate the activity of Na^+K^+ATPase of rat renal tubule segments, have shown that one or more of the central tri-glycine residues may be important, and preferred peptide fragments, where peptide A is concerned, thus include at least one, and more preferably, at least two, of the central tri-glycine residues. Thus, in addition to peptides B, C and D mentioned above, representative exemplary peptide fragments include GGGPGAG (SEQ ID NO. 8), GGGPG (SEQ ID No. 9), GGGP (SEQ ID NO. 10), GGP and GGPG (SEQ ID NO. 11).
The stimulatory effect of Peptides A-F on Na^+K^+ATPase activity of rat renal tubule cells was examined. Single proximal convoluted tubules were prepared from rat kidneys by micro-dissection. The tubules were incubated for 30 minutes at room temperature with either of Peptides A-F or rat C-peptide 1. Na^+K^+ATPase activity was then measured following exposure of the tubules to hypotonic shock and incubation for 15 minutes in a medium containing ^32P-ATP in the presence or absence of oubain.
The stimulatory activity of 5-10^−7 M rat C-peptide 1 was set at 100%. For the same concentration of Peptides A-F the following relative activities were obtained: […]

In assay [2] the test system is cell surface of human renal tubule cells (C-peptide binding site). The assay is described as follows: Binding of rhodamine-labelled C-peptide to cultured human renal tubule cells, by fluorescence correlation spectroscopy. The conditions noted are these: for effect of preincubation on binding of fluorescently labelled C-peptide (in words): preincubation of cells with the unlabelled peptide. The procedure:
When fluorescently labelled C-peptide is incubated with cells it binds to the cell surface. […] For a detailed example of the binding of Fragment E see Example 28, below.
The specific binding of Peptide E to the cell surface is illustrated as follows. Human biosynthetic C-peptide (Eli-Lilly, Inc., Indianapolis, USA) was labelled with tetramethylrhodamine using the activated reagent tetramethylrhodamine succinimidyl ester (FluoReporter® Protein labelling kit, Art. no. F-6163; Molecular Probes Europe BV, Leiden, Netherlands). The coupling reaction was performed at pH 8.3 (0.1 M NaHCO3 buffer) with a five-fold stoichiometrical excess of activated reagent to C-peptide. The tetramethylrhodamine group has absorption/emission maxima at 555/580 nm, respectively and is incorporated in the N-terminus of the C-peptide. Labelled C-peptides were purified by gel filtration (desalting against 50 mM phosphate buffer, 0.1 M NaCl, pH 7.4) on a NAP-5 column; Pharmacia Biotech Uppsala, Sweden) and subsequently by preparative reverse phase chromatography (250 mm Kromasil C8 column, diam. 4.6 mm, 7 μm particle size, 10 nm pore size, Eka-Nobel, Surte, Sweden) using a 1090 Hewlett Packard HPLC chromatography system (Grenoble, France) (FIG. 1). Eluted material was immediately adjusted to pH 8 by addition of ammonia and subsequently lyophilized.
Cultured human renal tubule cells (proximal convoluted tubules, PCT) were incubated with the rhodamine labelled C-peptide synthesized as described above. The cells were prepared from the healthy part of a human kidney removed surgically because of hypernephroma. The outer 150 μm of the renal cortex was removed in a microtome and incubated in a collagenase solution (0.05%) at 37° C. for 15 minutes. A tissue suspension was centrifuged and rinsed twice with 0.01% soybean trypsin inhibitor-solution (Gibco Laboratories, Grand Island, N.Y., USA) and a concentrate of PCT fragments and PCT cells were plated onto glass cover slips. The cells were cultured in Dulbecco's Modified Eagle's Medium [DMEM, 20 mmol/l 4-(2-hydroxyethyl)-1-piperazineethane sulphoric acid (Hepes), 24 mmol/l NaHCO3 50,000 IU/l penicillin and 50 mg/l streptomycin, pH 7.4] with 10% fetal bovine serum (Gibco) in an incubator at 37° C. with 95% O2, and 5% CO2. After 28 hours in culture the medium was changed to DMEM with 1% fetal bovine serum. The cells were examined approximately 18-36 hours later.
The interaction between C-peptide and the cell surface of the tubule cells was recorded using fluorescence correlation spectroscopy (11). […] In contrast, when the cells were preincubated with 5 μM of Peptide E, C-peptide binding after 50 minutes was no more than 12%.

Take D,L-LG: the “activity of peptides containing D-amino acid isomers (in words)” value in assay [1] was “active”.

For the substance D-LG, the “activity of peptides containing D-amino acid isomers (in words)” value in assay [1] is reported as “active”.

As to “EAEDLQVGQVELGGGPGAGSLQPLALEGSLQ (N-terminal tetramethylrhodamine label) [C-peptide, human biosynthetic C-peptide (Eli-Lilly)]”, the “C-peptide bound to the cell surface” value in assay [2] (C-peptide 5 nM, within 50 minutes, no competitor) stood at 92%. Besides, in assay [2], the “effect of preincubation on binding of fluorescently labelled C-peptide (in words)” value (shortened to “effect of preincubation”) is recorded as “prevents binding of the fluorescently labelled C-peptide”.

For the substance “EGSLQ [Peptide E, C-terminal fragment of human insulin C-peptide]”, in assay [1], the “relative stimulatory activity on Na^+K^+ATPase activity” value (“relative stimulatory activity” for short) is recorded as 110±3% and the “stimulation of Na^+K^+ATPase activity compared with whole C-peptide (in words)” value is reported as “comparable to or greater than that for the whole molecule”. For the same substance, the “C-peptide remaining bound after later addition of the peptide” value in assay [2] (C-peptide bound for 50 minutes, then peptide added, within 4 hours) amounted to 14%. The “C-peptide binding after 50 minutes” value in assay [2] (cells preincubated with 5 μM of the peptide, C-peptide 5 nM) is “no more than 12%”. In addition, the “effect of preincubation” value in assay [2] was “prevent binding of the fluorescently marked C-peptide”.

Regarding ELGG [Peptide B, fragment of Peptide A], the “relative stimulatory activity” value in assay [1] is on record as 36±2%.

As for “ELGGGP [Peptide C, fragment of Peptide A]”, the “relative stimulatory activity” value in assay [1] is reported as 46±3%.

“ELGGGPGAG [Peptide A, fragment of human insulin C-peptide]”: in assay [1], the “relative stimulatory activity” value turned out to be 88±3%.

As for “GGPGA [Peptide D, fragment of Peptide A]”, the “relative stimulatory activity” value in assay [1] stood at 65±4%.

Take GSLQ [Peptide F, fragment of Peptide E]: in assay [1], the “relative stimulatory activity” value is on record as 96±2% and the “stimulation of Na^+K^+ATPase activity compared with whole C-peptide (in words)” value was “comparable to or greater than that for the whole molecule”. Further, in assay [2], the “effect of preincubation” value is given as “prevent binding of the fluorescently marked C-peptide”.
